Measured values reported in PubChem BioAssay (NCI).
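How tested: cells in 96-well plates exposed to compound for 48 hours at five concentrations. TGI marks complete inhibition of growth.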

Legend:
Assay in all cases: NCI-60 cell line screen, 48 h
SNB-19 CNS = tested on: SNB-19 CNS
SK-MEL-5 melanoma = tested on: SK-MEL-5 melanoma
HCT-116 colon = tested on: HCT-116 colon
OVCAR-5 ovarian = tested on: OVCAR-5 ovarian
SF-539 CNS = tested on: SF-539 CNS
SF-295 CNS = tested on: SF-295 CNS
CCRF-CEM leukemia = tested on: CCRF-CEM leukemia
UACC-62 melanoma = tested on: UACC-62 melanoma
DU-145 prostate = tested on: DU-145 prostate
OVCAR-8 ovarian = tested on: OVCAR-8 ovarian
HS 578T breast = tested on: HS 578T breast
SF-268 CNS = tested on: SF-268 CNS
HOP-62 NSCLC = tested on: HOP-62 NSCLC
SR leukemia = tested on: SR leukemia
RPMI-8226 leukemia = tested on: RPMI-8226 leukemia
HT29 colon = tested on: HT29 colon
HOP-92 NSCLC = tested on: HOP-92 NSCLC
MOLT-4 leukemia = tested on: MOLT-4 leukemia
MDA-N = tested on: MDA-N
OVCAR-4 ovarian = tested on: OVCAR-4 ovarian
NCI-H522 lung = tested on: NCI-H522 lung
OVCAR-3 ovarian = tested on: OVCAR-3 ovarian
NCI-H226 lung = tested on: NCI-H226 lung
COLO 205 colon = tested on: COLO 205 colon
KM12 colon = tested on: KM12 colon
SK-MEL-28 melanoma = tested on: SK-MEL-28 melanoma
HL-60(TB) leukemia = tested on: HL-60(TB) leukemia
HCT-15 colon = tested on: HCT-15 colon
NCI-H23 lung = tested on: NCI-H23 lung
MCF7 breast = tested on: MCF7 breast
PC-3 prostate = tested on: PC-3 prostate
NCI-H460 lung = tested on: NCI-H460 lung
LOX IMVI melanoma = tested on: LOX IMVI melanoma
ACHN renal = tested on: ACHN renal
SK-MEL-2 melanoma = tested on: SK-MEL-2 melanoma
TK-10 renal = tested on: TK-10 renal
HCC-2998 colon = tested on: HCC-2998 colon
A549 NSCLC = tested on: A549 NSCLC
UACC-257 melanoma = tested on: UACC-257 melanoma
IGROV1 ovarian = tested on: IGROV1 ovarian
CAKI-1 renal = tested on: CAKI-1 renal
MALME-3M melanoma = tested on: MALME-3M melanoma
BT-549 breast = tested on: BT-549 breast
T-47D breast = tested on: T-47D breast
MDA-MB-435 = tested on: MDA-MB-435
SN12C renal = tested on: SN12C renal
NCI/ADR-RES ovarian = tested on: NCI/ADR-RES ovarian
U251 CNS = tested on: U251 CNS
M14 melanoma = tested on: M14 melanoma
A498 renal = tested on: A498 renal
EKVX NSCLC = tested on: EKVX NSCLC
UO-31 renal = tested on: UO-31 renal
MDA-MB-231 breast = tested on: MDA-MB-231 breast
SK-OV-3 ovarian = tested on: SK-OV-3 ovarian
786-0 renal = tested on: 786-0 renal

Nc1cc(CO)cc(Nc2c3ccccc3nc3occc23)c1
TGI (SNB-19 CNS): > 100 µM | TGI (SK-MEL-5 melanoma): 58.9 µM | TGI (HCT-116 colon): 73.7 µM | TGI (OVCAR-5 ovarian): > 100 µM | TGI (SF-539 CNS): 69.6 µM | TGI (SF-295 CNS): > 100 µM | TGI (CCRF-CEM leukemia): > 100 µM | TGI (UACC-62 melanoma): 86.8 µM | TGI (DU-145 prostate): > 100 µM | TGI (OVCAR-8 ovarian): > 100 µM | TGI (HS 578T breast): 83.8 µM | TGI (SF-268 CNS): 87.3 µM | TGI (HOP-62 NSCLC): > 100 µM | TGI (SR leukemia): 27.3 µM | TGI (RPMI-8226 leukemia): > 100 µM | TGI (HT29 colon): 30.5 µM | TGI (HOP-92 NSCLC): > 100 µM | TGI (MOLT-4 leukemia): 50.1 µM | TGI (MDA-N): > 100 µM | TGI (OVCAR-4 ovarian): 54.5 µM | TGI (NCI-H522 lung): 39.9 µM | TGI (OVCAR-3 ovarian): > 100 µM | TGI (NCI-H226 lung): > 100 µM | TGI (COLO 205 colon): 85.7 µM | TGI (KM12 colon): > 100 µM | TGI (SK-MEL-28 melanoma): 72.4 µM | TGI (HL-60(TB) leukemia): 74.4 µM | TGI (HCT-15 colon): > 100 µM | TGI (NCI-H23 lung): 71.7 µM | TGI (MCF7 breast): 66 µM | TGI (PC-3 prostate): > 100 µM | TGI (NCI-H460 lung): 64.3 µM | TGI (LOX IMVI melanoma): > 100 µM | TGI (ACHN renal): > 100 µM | TGI (SK-MEL-2 melanoma): 73.9 µM | TGI (TK-10 renal): > 100 µM | TGI (HCC-2998 colon): > 100 µM | TGI (A549 NSCLC): > 100 µM | TGI (UACC-257 melanoma): > 100 µM | TGI (IGROV1 ovarian): 90.8 µM | TGI (CAKI-1 renal): 94.9 µM | TGI (MALME-3M melanoma): > 100 µM | TGI (BT-549 breast): 81.6 µM | TGI (T-47D breast): 80.3 µM | TGI (MDA-MB-435): 41.9 µM | TGI (SN12C renal): > 100 µM | TGI (NCI/ADR-RES ovarian): 62.6 µM | TGI (U251 CNS): > 100 µM | TGI (M14 melanoma): 93.2 µM | TGI (A498 renal): > 100 µM | TGI (EKVX NSCLC): > 100 µM | TGI (UO-31 renal): > 100 µM | TGI (MDA-MB-231 breast): > 100 µM | TGI (SK-OV-3 ovarian): > 100 µM | TGI (786-0 renal): 77.4 µM
